From article PMC3388095, “Fluorophore Labeled Kinase Detects Ligands That Bind within the MAPK Insert of p38α Kinase” (PLoS ONE, 2012)

Columns and labels:
Experiment in all cases: Kinase selectivity profile, 33P-ATP filter-binding assay
Type in all cases: biochemical
[1] = target: HIPK2 (Homo sapiens, UniProt Q9H2X6)
Experimental: (§1) Figure 5 Kinase selectivity profile of 1b. Compound 1b was profiled against a selected panel of 95 different kinases at a concentration of 10 µM employing a radioactive (^33P-ATP) filter-binding assay (National Centre for Protein Kinase Profiling, Dundee). The numbers represent the remaining kinase activity in %. […] TEXT PRINTED IN THE PICTURE: no label printed: Aurora B: 53; MNK2: 67; MINK1: 69; HER4: 71; MKK1: 75; PKBβ: 75; PHK: 76; PIM2: 76; PIM3: 77; CHK2: 78; PKD1: 79; TBK1: 79; PAK4: 80; Lck: 80; GSK3β: 80; IGF-1R: 81; p38δ MAPK: 81; PIM1: 82; SRPK1: 83; SmMLCK: 83; MAPKAP-K3: 84; EPH A2: 85; MELK: 85; CK2: 85; CK1: 86; CAMK1: 86; PLK1: 87; MST2: 87; IR-HIS: 87; BTK: 87; HIPK1: 87; p38α MAPK: 88; DYRK2: 88; JNK3: 88; PAK5: 88; IKKε: 89; p38β MAPK: 89; NUAK1: 90; PAK2: 90; MNK1: 91; ERK8: 91; GCK: 91; PRAK: 91; MLK1: 92; SGK1: 92; PAK6: 92; TTK: 92; BRSK2: 92; MARK4: 93; CHK1: 93; RIPK2: 94; CDK2-Cyclin A: 94; JNK1: 94; AMPK: 94; VEG-FR: 95; DYRK1A: 95; CAMKKβ: 95; PKCα: 96; S6K1: 96; MSK1: 96; PKCz: 96; YES1: 96; RSK1: 97; IRAK4: 97; DYRK3: 97; IKKβ: 97; ERK2: 98; MLK3: 98; RSK2: 98; LKB1: 98; MAPKAP-K2: 98; ERK1: 99; FGF-R1: 99; SYK: 99; MST4: 99; MARK3: 99; MARK2: 100; PDK1: 100; JNK2: 101; HIPK2: 101; BRSK1: 102; EF2K: 102; PRK2: 103; Aurora A: 104; IRR: 104; CSK: 104; PKA: 104; NEK6: 105; p38γ MAPK: 105; Src: 107; PKBα: 109; ROCK 2: 109; EPH-B3: 112; HIPK3: 115; NEK2α: 119 DOUBTS OF THE COPYIST ABOUT THIS PICTURE: The picture prints no compound label and no measure or unit for the numbers; only the colour scale 'Inhibition weak/strong' is printed. / PKCz: the last letter may be z or ζ / NEK2α: the last letter may be a or α / IKKε: the last letter may be ε or e

[2] = target: MSK1 (Homo sapiens, UniProt O75582)
Experimental: as §1

[3] = target: DYRK1A (Homo sapiens, UniProt Q13627)
Experimental: as §1

[4] = target: PKA (Homo sapiens, UniProt P17612)
Experimental: as §1

[5] = target: PAK4 (Homo sapiens, UniProt O96013)
Experimental: as §1

[6] = target: S6K1 (Homo sapiens, UniProt P23443)
Experimental: as §1

[7] = target: PRAK (Homo sapiens, UniProt Q8IW41)
Experimental: as §1

[8] = target: NUAK1 (Homo sapiens, UniProt O60285)
Experimental: as §1

[9] = target: MNK1 (Homo sapiens, UniProt Q9BUB5)
Experimental: as §1

[10] = target: p38α MAPK (Homo sapiens, UniProt Q16539)
Experimental: as §1

[11] = target: BRSK1 (Homo sapiens, UniProt Q8TDC3)
Experimental: as §1

[12] = target: Aurora A (Homo sapiens, UniProt O14965)
Experimental: as §1

[13] = target: MAPKAP-K3 (Homo sapiens, UniProt Q16644)
Experimental: as §1

[14] = target: JNK1 (Homo sapiens, UniProt P45983)
Experimental: as §1

[15] = target: CAMKKβ (Homo sapiens, UniProt Q96RR4)
Experimental: as §1

[16] = target: DYRK3 (Homo sapiens, UniProt O43781)
Experimental: as §1

[17] = target: p38γ MAPK (Homo sapiens, UniProt P53778)
Experimental: as §1

[18] = target: p38β MAPK (Homo sapiens, UniProt Q15759)
Experimental: as §1

[19] = target: IRR (Homo sapiens, UniProt P14616)
Experimental: as §1

[20] = target: MKK1 (Homo sapiens, UniProt Q02750)
Experimental: as §1

[21] = target: BRSK2 (Homo sapiens, UniProt Q8IWQ3)
Experimental: as §1

[22] = target: TBK1 (Homo sapiens, UniProt Q9UHD2)
Experimental: as §1

[23] = target: NEK6 (Homo sapiens, UniProt Q9HC98)
Experimental: as §1

[24] = target: MLK1 (Homo sapiens, UniProt P80192)
Experimental: as §1

[25] = target: CHK2 (Homo sapiens, UniProt O96017)
Experimental: as §1

[26] = target: EPH-B3 (Homo sapiens, UniProt P54753)
Experimental: as §1

[27] = target: PRK2 (Homo sapiens, UniProt Q16513)
Experimental: as §1

Sequence of BRSK2 (Q8IWQ3 whole entry): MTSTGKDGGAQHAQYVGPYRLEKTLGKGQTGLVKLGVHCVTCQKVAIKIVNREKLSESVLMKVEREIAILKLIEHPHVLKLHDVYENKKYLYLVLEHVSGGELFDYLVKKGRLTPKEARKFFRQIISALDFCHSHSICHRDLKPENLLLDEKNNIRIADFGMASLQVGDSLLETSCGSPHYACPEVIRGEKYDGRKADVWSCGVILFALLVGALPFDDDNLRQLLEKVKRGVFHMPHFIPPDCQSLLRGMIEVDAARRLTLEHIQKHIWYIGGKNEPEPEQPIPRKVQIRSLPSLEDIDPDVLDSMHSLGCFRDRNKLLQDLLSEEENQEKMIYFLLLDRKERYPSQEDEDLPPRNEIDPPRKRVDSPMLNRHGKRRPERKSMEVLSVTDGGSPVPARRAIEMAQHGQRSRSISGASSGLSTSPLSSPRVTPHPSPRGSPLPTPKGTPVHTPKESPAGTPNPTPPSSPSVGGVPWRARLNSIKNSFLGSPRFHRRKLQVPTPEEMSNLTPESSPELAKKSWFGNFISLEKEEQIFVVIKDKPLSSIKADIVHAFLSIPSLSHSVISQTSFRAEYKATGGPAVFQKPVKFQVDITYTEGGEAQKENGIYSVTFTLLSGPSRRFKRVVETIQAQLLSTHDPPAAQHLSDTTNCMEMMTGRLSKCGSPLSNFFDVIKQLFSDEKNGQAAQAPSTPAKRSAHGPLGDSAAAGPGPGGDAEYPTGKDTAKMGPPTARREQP
Sequence of BRSK1 (Q8TDC3 whole entry): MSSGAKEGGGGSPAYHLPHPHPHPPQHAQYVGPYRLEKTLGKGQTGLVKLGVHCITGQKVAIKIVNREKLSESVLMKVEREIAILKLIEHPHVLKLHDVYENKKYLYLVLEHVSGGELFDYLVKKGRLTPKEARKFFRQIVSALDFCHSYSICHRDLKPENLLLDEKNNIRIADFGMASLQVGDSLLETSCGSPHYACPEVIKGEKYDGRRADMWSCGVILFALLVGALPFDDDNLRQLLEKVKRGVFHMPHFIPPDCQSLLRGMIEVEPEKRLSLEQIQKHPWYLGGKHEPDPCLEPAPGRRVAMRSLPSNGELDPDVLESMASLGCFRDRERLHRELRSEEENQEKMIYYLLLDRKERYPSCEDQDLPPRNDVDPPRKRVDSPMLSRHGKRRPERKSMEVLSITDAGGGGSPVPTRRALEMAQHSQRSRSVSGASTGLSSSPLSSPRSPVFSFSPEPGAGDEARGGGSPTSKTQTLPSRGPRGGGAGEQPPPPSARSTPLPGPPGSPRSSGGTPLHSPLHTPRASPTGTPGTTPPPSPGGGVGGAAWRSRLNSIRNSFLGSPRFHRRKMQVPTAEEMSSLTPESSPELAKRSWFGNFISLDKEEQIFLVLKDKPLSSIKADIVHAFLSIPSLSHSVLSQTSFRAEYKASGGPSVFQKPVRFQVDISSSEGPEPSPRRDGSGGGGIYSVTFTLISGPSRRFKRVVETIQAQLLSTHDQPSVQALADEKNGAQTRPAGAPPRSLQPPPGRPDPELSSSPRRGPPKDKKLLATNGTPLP
Sequence of MLK1 (P80192 whole entry): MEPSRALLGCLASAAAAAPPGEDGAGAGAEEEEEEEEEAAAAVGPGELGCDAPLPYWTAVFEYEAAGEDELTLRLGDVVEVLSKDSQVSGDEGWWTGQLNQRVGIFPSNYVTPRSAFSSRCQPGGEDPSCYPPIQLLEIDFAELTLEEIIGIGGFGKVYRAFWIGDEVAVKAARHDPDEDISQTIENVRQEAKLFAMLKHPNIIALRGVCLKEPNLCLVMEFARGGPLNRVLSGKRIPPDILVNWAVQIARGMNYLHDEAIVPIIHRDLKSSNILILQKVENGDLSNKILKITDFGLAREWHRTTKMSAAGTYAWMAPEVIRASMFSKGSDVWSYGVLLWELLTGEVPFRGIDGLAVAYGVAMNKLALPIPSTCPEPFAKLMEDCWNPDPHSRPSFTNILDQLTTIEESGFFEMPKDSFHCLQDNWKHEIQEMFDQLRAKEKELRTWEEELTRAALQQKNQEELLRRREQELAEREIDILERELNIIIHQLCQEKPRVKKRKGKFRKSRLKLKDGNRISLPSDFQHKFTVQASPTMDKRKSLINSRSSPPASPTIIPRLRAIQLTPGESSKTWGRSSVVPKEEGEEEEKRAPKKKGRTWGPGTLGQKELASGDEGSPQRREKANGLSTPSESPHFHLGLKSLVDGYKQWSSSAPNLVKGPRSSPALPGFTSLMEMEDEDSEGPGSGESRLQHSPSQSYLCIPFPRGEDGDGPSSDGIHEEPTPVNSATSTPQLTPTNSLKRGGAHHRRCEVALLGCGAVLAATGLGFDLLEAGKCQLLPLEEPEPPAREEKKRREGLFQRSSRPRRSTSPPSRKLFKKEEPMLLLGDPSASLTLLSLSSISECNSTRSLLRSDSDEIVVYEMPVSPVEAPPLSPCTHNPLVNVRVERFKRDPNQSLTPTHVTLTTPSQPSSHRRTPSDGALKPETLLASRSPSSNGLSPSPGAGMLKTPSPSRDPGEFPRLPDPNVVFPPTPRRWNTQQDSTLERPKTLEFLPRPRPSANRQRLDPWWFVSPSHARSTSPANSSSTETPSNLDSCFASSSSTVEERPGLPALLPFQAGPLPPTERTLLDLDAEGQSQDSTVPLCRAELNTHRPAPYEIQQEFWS
Sequence of CHK2 (O96017 whole entry): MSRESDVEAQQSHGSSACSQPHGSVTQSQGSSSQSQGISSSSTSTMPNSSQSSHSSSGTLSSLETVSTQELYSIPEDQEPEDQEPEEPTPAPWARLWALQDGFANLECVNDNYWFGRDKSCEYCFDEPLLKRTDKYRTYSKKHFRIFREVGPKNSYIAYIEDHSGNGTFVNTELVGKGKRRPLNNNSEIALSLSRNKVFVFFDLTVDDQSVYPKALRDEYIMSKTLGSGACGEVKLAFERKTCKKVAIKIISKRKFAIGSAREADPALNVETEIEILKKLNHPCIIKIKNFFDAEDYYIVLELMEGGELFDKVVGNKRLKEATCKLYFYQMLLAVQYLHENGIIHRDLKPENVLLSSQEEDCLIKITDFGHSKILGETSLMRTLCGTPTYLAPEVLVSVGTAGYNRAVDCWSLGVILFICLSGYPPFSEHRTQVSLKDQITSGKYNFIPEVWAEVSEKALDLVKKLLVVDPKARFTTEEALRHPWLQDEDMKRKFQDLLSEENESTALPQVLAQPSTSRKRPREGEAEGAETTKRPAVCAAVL
Sequence of JNK1 (P45983 whole entry): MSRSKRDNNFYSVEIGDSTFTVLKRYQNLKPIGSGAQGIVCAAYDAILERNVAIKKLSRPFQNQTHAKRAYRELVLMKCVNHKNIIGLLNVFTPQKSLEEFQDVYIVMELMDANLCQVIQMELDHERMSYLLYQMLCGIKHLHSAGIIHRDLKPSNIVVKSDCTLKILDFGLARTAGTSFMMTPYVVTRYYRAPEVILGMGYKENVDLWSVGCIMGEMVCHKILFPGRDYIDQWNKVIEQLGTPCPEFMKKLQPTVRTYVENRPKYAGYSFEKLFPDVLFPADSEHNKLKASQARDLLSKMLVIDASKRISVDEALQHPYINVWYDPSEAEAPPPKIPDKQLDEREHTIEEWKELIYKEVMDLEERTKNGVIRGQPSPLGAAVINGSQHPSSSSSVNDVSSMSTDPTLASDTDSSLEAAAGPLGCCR
Sequence of MNK1 (Q9BUB5 whole entry): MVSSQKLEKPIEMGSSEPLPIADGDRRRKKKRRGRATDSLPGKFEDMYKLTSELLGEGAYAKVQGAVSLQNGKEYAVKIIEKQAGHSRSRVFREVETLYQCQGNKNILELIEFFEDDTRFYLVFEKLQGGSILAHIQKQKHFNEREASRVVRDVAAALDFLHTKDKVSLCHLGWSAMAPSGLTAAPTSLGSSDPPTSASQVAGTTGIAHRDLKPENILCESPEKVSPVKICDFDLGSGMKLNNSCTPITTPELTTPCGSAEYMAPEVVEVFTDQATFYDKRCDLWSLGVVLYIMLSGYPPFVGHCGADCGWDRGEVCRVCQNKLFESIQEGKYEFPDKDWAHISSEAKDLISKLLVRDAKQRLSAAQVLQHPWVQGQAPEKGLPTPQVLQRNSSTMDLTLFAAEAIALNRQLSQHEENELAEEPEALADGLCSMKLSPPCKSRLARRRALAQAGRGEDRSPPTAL
Sequence of p38α MAPK (Q16539 whole entry): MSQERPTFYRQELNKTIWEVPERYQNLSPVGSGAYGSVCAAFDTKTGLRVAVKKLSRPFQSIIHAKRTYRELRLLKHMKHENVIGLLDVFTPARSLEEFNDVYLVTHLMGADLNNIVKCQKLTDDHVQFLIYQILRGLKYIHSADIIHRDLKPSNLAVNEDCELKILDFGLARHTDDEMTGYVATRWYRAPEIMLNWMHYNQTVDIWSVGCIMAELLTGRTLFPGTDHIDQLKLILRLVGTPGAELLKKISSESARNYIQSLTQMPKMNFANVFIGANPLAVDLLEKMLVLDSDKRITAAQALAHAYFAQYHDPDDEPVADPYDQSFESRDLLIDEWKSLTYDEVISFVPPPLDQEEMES
Sequence of NEK6 (Q9HC98 whole entry): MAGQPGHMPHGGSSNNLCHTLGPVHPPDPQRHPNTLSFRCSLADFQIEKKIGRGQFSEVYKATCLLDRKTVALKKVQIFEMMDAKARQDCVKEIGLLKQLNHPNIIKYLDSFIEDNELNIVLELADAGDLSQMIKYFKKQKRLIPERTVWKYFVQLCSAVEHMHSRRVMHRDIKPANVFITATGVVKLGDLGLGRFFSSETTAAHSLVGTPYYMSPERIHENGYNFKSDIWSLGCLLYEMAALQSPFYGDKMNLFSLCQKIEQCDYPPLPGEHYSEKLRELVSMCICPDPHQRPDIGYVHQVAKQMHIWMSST

Q: For `Nc1ccc2c(NC3CC3)nc(-c3ccccc3)nc2c1` [1b, N^4-Cyclopropyl-2-phenyl-4,7-quinazolinediamine], which remaining activity at 10 µM [1] is on record?
A: The remaining activity at 10 µM was 101%.

Q: What about the remaining activity at 10 µM [2] of the same molecule?
A: Its remaining activity at 10 µM is 96%.

Q: What about the remaining activity at 10 µM [3] of the same molecule?
A: The remaining activity at 10 µM was 95%.

Q: And the remaining activity at 10 µM [4]?
A: Its remaining activity at 10 µM is 104%.

Q: And the remaining activity at 10 µM [5]?
A: Its remaining activity at 10 µM is 80%.

Q: What about the remaining activity at 10 µM [6] of the same molecule?
A: Its remaining activity at 10 µM is 96%.

Q: What about the remaining activity at 10 µM [7] of the same molecule?
A: Its remaining activity at 10 µM is 91%.

Q: What about the remaining activity at 10 µM [8] of the same molecule?
A: Its remaining activity at 10 µM is 90%.

Q: And the remaining activity at 10 µM [9]?
A: Its remaining activity at 10 µM is 91%.

Q: What about the remaining activity at 10 µM [10] of the same molecule?
A: Its remaining activity at 10 µM is 88%.

Q: What about the remaining activity at 10 µM [11] of the same molecule?
A: Its remaining activity at 10 µM is 102%.

Q: And the remaining activity at 10 µM [12]?
A: Its remaining activity at 10 µM is 104%.

Q: And the remaining activity at 10 µM [13]?
A: The remaining activity at 10 µM was 84%.

Q: And the remaining activity at 10 µM [14]?
A: The remaining activity at 10 µM was 94%.

Q: And the remaining activity at 10 µM [15]?
A: The remaining activity at 10 µM was 95%.

Q: What about the remaining activity at 10 µM [16] of the same molecule?
A: The remaining activity at 10 µM was 97%.

Q: What about the remaining activity at 10 µM [17] of the same molecule?
A: The remaining activity at 10 µM was 105%.

Q: What about the remaining activity at 10 µM [18] of the same molecule?
A: The remaining activity at 10 µM was 89%.

Q: And the remaining activity at 10 µM [19]?
A: Its remaining activity at 10 µM is 104%.

Q: What about the remaining activity at 10 µM [20] of the same molecule?
A: Its remaining activity at 10 µM is 75%.

Q: What about the remaining activity at 10 µM [21] of the same molecule?
A: Its remaining activity at 10 µM is 92%.

Q: And the remaining activity at 10 µM [22]?
A: Its remaining activity at 10 µM is 79%.

Q: What about the remaining activity at 10 µM [23] of the same molecule?
A: Its remaining activity at 10 µM is 105%.

Q: What about the remaining activity at 10 µM [24] of the same molecule?
A: The remaining activity at 10 µM was 92%.

Q: And the remaining activity at 10 µM [25]?
A: The remaining activity at 10 µM was 78%.

Q: And the remaining activity at 10 µM [26]?
A: Its remaining activity at 10 µM is 112%.

Q: And the remaining activity at 10 µM [27]?
A: The remaining activity at 10 µM was 103%.
